Results from ChEMBL document CHEMBL1201862, “PubChem BioAssay data set” (2004).
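1) Cells in 96-well plates. 2) Compound, 48 h, 5 concentrations. 3) Linear interpolation between surrounding doses. 4) Unreached endpoint = highest concentration. At the GI50, growth is halved.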 The source made the active and inactive calls. Cut-off read from the data, not from the text of the source: active = GI50 up to about 1.1 µM and inactive = higher.

Experiments:
Assay in all cases: NCI tumour cell line growth inhibition, 48 h
[1] = test system: OVCAR-3
[2] = test system: SK-MEL-28
[3] = test system: OVCAR-5
[4] = test system: NCI-H460
[5] = test system: HCC 2998
[6] = test system: SF-295
[7] = test system: DMS-273
[8] = test system: SF-268
[9] = test system: NCI-H522
[10] = test system: OVCAR-8
[11] = test system: HT-29
[12] = test system: UACC-62
[13] = test system: HOP-62
[14] = test system: SN12C
[15] = test system: HCT-15
[16] = test system: RXF 631
[17] = test system: SNB-19
[18] = test system: RPMI-8226
[19] = test system: M14
[20] = test system: KM-20L2
[21] = test system: HCT-116
[22] = test system: HOP-92
[23] = test system: XF498
[24] = test system: SNB-78
[25] = test system: UO-31
[26] = test system: TK-10
[27] = test system: ACHN
[28] = test system: SK-MEL-2
[29] = test system: KM12
[30] = test system: M19-MEL
[31] = test system: K562
[32] = test system: DMS-114
[33] = test system: 786-0
[34] = test system: A498
[35] = test system: MOLT-4
[36] = test system: CAKI-1
[37] = test system: LOX IMVI
[38] = test system: NCI-H226
[39] = test system: Malme-3M
[40] = test system: SK-OV-3
[41] = test system: SF-539
[42] = test system: NCI-H23
[43] = test system: U-251
[44] = test system: COLO 205
[45] = test system: IGROV-1
[46] = test system: HL-60
[47] = test system: LXFL 529
[48] = test system: HOP-18
[49] = test system: A549
[50] = test system: UACC-257
[51] = test system: SW-620
[52] = test system: DLD-1
[53] = test system: CCRF-CEM
[54] = test system: OVCAR-4
[55] = test system: EKVX
[56] = test system: SNB-75
[57] = test system: SK-MEL-5
[58] = test system: RXF 393

Measured: GI50

COC(=N)c1csc(C2OC(CO)C(O)C2O)n1 (stereo unspecified)
> 100 µM: [15]
inactive: [1] > 100 µM | [2] > 100 µM | [3] > 100 µM | [4] > 100 µM | [5] > 100 µM | [6] > 100 µM | [7] > 100 µM | [8] > 100 µM | [9] > 100 µM | [10] > 100 µM | [11] > 100 µM | [12] > 100 µM | [13] > 100 µM | [14] > 100 µM | [16] > 100 µM | [17] > 100 µM | [18] > 100 µM | [19] > 100 µM | [20] > 100 µM | [21] > 100 µM | [22] > 100 µM | [23] > 100 µM | [24] > 100 µM | [25] 50.7 µM | [26] > 100 µM | [27] > 100 µM | [28] > 100 µM | [29] > 100 µM | [30] > 100 µM | [31] > 100 µM | [32] > 100 µM | [33] > 100 µM | [34] > 100 µM | [35] 61.9 µM | [36] > 100 µM | [37] > 100 µM | [38] > 100 µM | [39] > 100 µM | [40] > 100 µM | [41] > 100 µM | [42] > 100 µM | [43] > 100 µM | [44] > 100 µM | [45] > 100 µM | [46] 38.5 µM | [47] > 100 µM | [48] > 100 µM | [49] > 100 µM | [50] > 100 µM | [51] > 100 µM | [52] 83.9 µM | [53] 86.5 µM | [54] > 100 µM | [55] > 100 µM

CCCCCCCC1(c2ccc(N)cc2)CCC(=O)NC1=O (stereo unspecified)
36.8 µM: [15]
inactive: [1] 22.6 µM | [2] 28.7 µM | [56] 22.5 µM | [3] 31.6 µM | [4] 26.7 µM | [5] 29.8 µM | [6] 30.4 µM | [7] 26.9 µM | [8] 34.4 µM | [9] 27.2 µM | [10] 35.8 µM | [12] 26.7 µM | [13] 32.9 µM | [14] 30 µM | [16] 41 µM | [17] 47.4 µM | [18] 19.1 µM | [19] 32.4 µM | [20] 33 µM | [22] 15.2 µM | [23] 27.2 µM | [24] 31.6 µM | [25] 20.5 µM | [26] 49.7 µM | [27] 18.7 µM | [28] 35.8 µM | [29] 48.4 µM | [30] 37.8 µM | [31] 28.4 µM | [32] 24.2 µM | [33] 28.4 µM | [35] 23.8 µM | [36] 27.4 µM | [37] 33 µM | [39] 28.1 µM | [40] 33 µM | [42] 38.3 µM | [44] 21.9 µM | [45] 32.3 µM | [46] 17 µM | [47] 29.3 µM | [49] 31.6 µM | [50] 32.9 µM | [51] 58.2 µM | [57] 20.7 µM | [58] 28 µM | [52] 33.7 µM | [53] > 10 µM | [54] 28.1 µM | [55] 23.5 µM
